Data as given in ChEMBL document CHEMBL4043226, “Design, synthesis and biological evaluation of benzamide and phenyltetrazole derivatives with amide and urea linkers as BCRP inhibitors” (Bioorg Med Chem Lett, 2017).

Experiments:
NCI-H460 = assay: Cytotoxicity against human H460 cells after 72 hrs by MTT assay; assay type: cell-based; conditions: NCI-H460, 72 h
[1] = Inhibition of ABCG2 in human H460/MX20 cells assessed as potentiation of mitoxantrone induced antiproliferative activity by measuring mitoxantrone IC50 at 3 uM preincubated for 2 hrs followed by mitoxantrone addition measured after 72 hrs by MTT assay (reference value: 6.161 +/- 0.172 microM)
[2] = Cytotoxicity against human NCI-H460/MX20 cells after 72 hrs by MTT assay; assay type: cell-based; conditions: NCI-H460/MX20, 72 h
[3] = Resistance index, ratio of mitoxantrone IC50 for human H460/MX20 cells to mitoxantrone IC50 for human H460 cells at 10 uM (reference value: 28.66)
[4] = Resistance index, ratio of mitoxantrone IC50 for human H460/MX20 cells to mitoxantrone IC50 for human H460 cells at 3 uM (reference value: 28.66)
[5] = Resistance index, ratio of mitoxantrone IC50 for human H460/MX20 cells to mitoxantrone IC50 for human H460 cells at 1 uM (reference value: 28.66)
[6] = Inhibition of ABCG2 in human H460/MX20 cells assessed as potentiation of mitoxantrone induced antiproliferative activity by measuring mitoxantrone IC50 at 1 uM preincubated for 2 hrs followed by mitoxantrone addition measured after 72 hrs by MTT assay (reference value: 6.161 +/- 0.172 microM)
[7] = target: T1, Broad substrate specificity ATP-binding cassette transporter ABCG2 (Homo sapiens, UniProt Q9UNQ0); assay: Inhibition of ABCG2 (unknown origin) expressed in high five insect cell membrane vesicles assessed as reduction in BCRP ATPase activity preincubated for 3 mins followed by ATP addition measured for 20 mins
T1 sequence (Q9UNQ0 whole entry): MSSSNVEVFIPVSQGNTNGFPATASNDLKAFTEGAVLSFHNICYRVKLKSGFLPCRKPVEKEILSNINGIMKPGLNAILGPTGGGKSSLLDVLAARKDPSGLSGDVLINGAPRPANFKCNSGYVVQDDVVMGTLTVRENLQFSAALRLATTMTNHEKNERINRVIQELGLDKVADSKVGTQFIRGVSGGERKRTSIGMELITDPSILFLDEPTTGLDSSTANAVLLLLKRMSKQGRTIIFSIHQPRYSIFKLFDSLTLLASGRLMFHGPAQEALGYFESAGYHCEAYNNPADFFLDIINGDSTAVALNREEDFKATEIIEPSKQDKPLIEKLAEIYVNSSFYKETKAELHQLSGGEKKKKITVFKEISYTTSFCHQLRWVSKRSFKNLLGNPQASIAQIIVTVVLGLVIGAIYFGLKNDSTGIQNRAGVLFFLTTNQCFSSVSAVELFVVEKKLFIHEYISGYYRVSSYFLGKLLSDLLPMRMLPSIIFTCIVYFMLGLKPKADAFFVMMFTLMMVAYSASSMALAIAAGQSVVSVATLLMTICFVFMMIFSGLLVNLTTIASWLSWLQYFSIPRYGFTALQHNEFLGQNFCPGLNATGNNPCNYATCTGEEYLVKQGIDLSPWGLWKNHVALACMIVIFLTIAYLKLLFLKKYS

[8] = Inhibition of ABCG2 in human H460/MX20 cells assessed as potentiation of mitoxantrone induced antiproliferative activity by measuring mitoxantrone IC50 at 10 uM preincubated for 2 hrs followed by mitoxantrone addition measured after 72 hrs by MTT assay (reference value: 6.161 +/- 0.172 microM)
ABCG2 (BCRP) = target: T2, ABCG2 (BCRP) (Homo sapiens, UniProt Q9UNQ0); assay: Activation of ABCG2 (unknown origin) expressed in high five insect cell membrane vesicles assessed as induction of basal BCRP ATPase activity at 10 uM preincubated for 3 mins followed by ATP addition measured for 20 mins relative to control; conditions: High Five insect cell membrane vesicles expressing ABCG2, read-out: FC
T2 sequence (Q9UNQ0 whole entry): T1 sequence (Q9UNQ0 whole entry)

[9] = target: T1, Broad substrate specificity ATP-binding cassette transporter ABCG2; assay: Inhibition of ABCG2 (unknown origin) expressed in high five insect cell membrane vesicles assessed as reduction in basal BCRP ATPase activity up to 30 uM preincubated for 3 mins followed by ATP addition measured for 20 mins relative to control

Row | SMILES | IC50 (NCI-H460) | IC50 [1] | IC50 [2] | Ratio IC50 [3] | Ratio IC50 [4] | Ratio IC50 [5] | IC50 [6] | inhibition (INH) [7] | IC50 [8] | fold induction at 20 min, 10 µM (ABCG2 (BCRP)) | fold change (FC) [9]
1 | CCCc1ccc(C(=O)Nc2ccccc2-c2nnn(-c3cccc(OC)c3)n2)cc1 | 27 µM | 0.207 µM | 40.6 µM | 0.61 | 0.96 | 1.65 | – | – | – | – | –
2 | COc1cccc(-n2nnc(-c3ccccc3NC(=O)c3ccccc3[N+](=O)[O-])n2)c1 | 38.9 µM | 1.32 µM | 44.7 µM | 5.12 | 6.14 | 8.74 | – | – | – | – | –
3 | COc1cccc(-n2nnc(-c3ccccc3NC(=O)Nc3cccc([N+](=O)[O-])c3)n2)c1 | > 100 µM | – | > 100 µM | – | – | – | – | – | – | – | –
4 | COc1cccc(-n2nnc(-c3ccccc3NC(=O)c3ccc(NC(=O)CBr)cc3)n2)c1 | > 100 µM | – | > 100 µM | 1.32 | 2.07 | 2.81 | – | – | – | – | –
5 | COc1cccc(-n2nnc(-c3ccccc3NC(=O)c3ccc(N=C=S)cc3)n2)c1 | 44.7 µM | – | 59 µM | 4.43 | 4.88 | 5.68 | 1.221 µM | – | – | – | –
6 | CCCc1ccc(NC(=O)c2ccccc2NC(=O)Nc2ccc(Br)cc2)cc1 | > 100 µM | – | > 100 µM | 4.43 | 9.87 | 12.35 | – | – | – | – | –
7 | CCCc1ccc(NC(=O)c2ccccc2NC(=O)Nc2cccc([N+](=O)[O-])c2)cc1 | > 100 µM | – | > 100 µM | 1.62 | 2.33 | 3.03 | – | Dose-dependent effect | 0.348 µM | 3.55 | –
8 | COc1ccc2c3c([nH]c2c1)[C@H](C=C(C)C)N1C(=O)[C@@H]2CCCN2C(=O)[C@@H]1C3 [FUMITREMORGIN] | – | – | – | 1.49 | 2.1 | 2.85 | – | – | 0.321 µM | – | –
9 | COc1cccc(-n2nnc(-c3ccccc3NC(=O)Nc3ccccc3[N+](=O)[O-])n2)c1 | > 100 µM | – | > 100 µM | 4.1 | 4.55 | 5.45 | 1.172 µM | – | – | – | –
10 | COc1cccc(-n2nnc(-c3ccccc3NC(=O)Nc3ccc(NC(=O)CBr)cc3)n2)c1 | > 100 µM | – | > 100 µM | 2.2 | 2.71 | 3.71 | – | – | – | – | –
11 | COc1cccc(-n2nnc(-c3ccccc3NC(=O)Nc3ccc(N=[N+]=[N-])cc3)n2)c1 | > 100 µM | – | > 100 µM | 3.19 | 3.21 | 4.25 | – | – | 0.685 µM | – | –
12 | COc1ccc(-n2nnc(-c3ccccc3NC(=O)Nc3ccc([N+](=O)[O-])cc3)n2)cc1 | 21.7 µM | – | 28.5 µM | 1.54 | 2.52 | 3.34 | – | – | – | – | –
13 | COc1cccc(-n2nnc(-c3ccccc3NC(=O)c3ccc(N=[N+]=[N-])cc3)n2)c1 | 20.3 µM | – | 21.5 µM | 5.89 | 6.98 | 7.51 | – | – | – | – | –
14 | COc1cccc(-n2nnc(-c3ccccc3NC(=O)Nc3ccc([N+](=O)[O-])cc3)n2)c1 | > 100 µM | – | > 100 µM | 1.87 | 2.53 | 3.87 | 0.832 µM | Dose-dependent effect | – | 1.94 | –
15 | COc1cccc(-n2nnc(-c3ccccc3NC(=O)c3cccc([N+](=O)[O-])c3)n2)c1 | 19.9 µM | 1.39 µM | 25.4 µM | 4.03 | 6.47 | 8.38 | – | – | – | – | –
16 | COc1ccc(-n2nnc(-c3ccccc3NC(=O)c3ccc([N+](=O)[O-])cc3)n2)cc1 | 24.7 µM | – | 27.4 µM | 1.76 | 2.49 | 2.73 | – | – | – | – | –
17 | COc1cccc(-n2nnc(-c3ccccc3NC(=O)Nc3ccc(N=C=S)cc3)n2)c1 | > 100 µM | – | > 100 µM | 2.56 | 3.1 | 7.05 | 1.515 µM | – | 0.55 µM | – | –
18 | CCCc1ccc(NC(=O)c2ccccc2NC(=O)c2ccccc2[N+](=O)[O-])cc1 | > 100 µM | – | > 100 µM | 7.7 | 9.36 | 11.75 | – | – | – | – | –
19 | COc1cccc(-n2nnc(-c3ccccc3NC(=O)c3ccc(NC(C)=O)cc3)n2)c1 | > 100 µM | – | > 100 µM | 5.58 | 6.16 | 6.34 | – | – | – | – | –
20 | COc1ccc(C(=O)Nc2ccccc2-c2nnn(-c3ccc(OC)cc3)n2)cc1 | > 100 µM | – | > 100 µM | 2.29 | 2.35 | 3.47 | – | – | – | – | –
21 | COc1cccc(-n2nnc(-c3ccccc3NC(=O)Nc3ccc(NC(C)=O)cc3)n2)c1 | > 100 µM | 0.454 µM | > 100 µM | 1.51 | 2.11 | 2.92 | – | – | – | – | –
22 | CCCc1ccc(NC(=O)c2ccccc2NC(=O)c2ccc(OC)cc2)cc1 | > 100 µM | 2.012 µM | > 100 µM | 7.97 | 10 | 13.1 | 2.526 µM | – | – | – | –
23 | CCCc1ccc(NC(=O)c2ccccc2NC(=O)Nc2ccccc2[N+](=O)[O-])cc1 | > 100 µM | – | > 100 µM | 5.21 | 11.92 | 17.03 | – | – | – | – | –
24 | COc1cccc(-n2nnc(-c3ccccc3NC(=O)c3ccc([N+](=O)[O-])cc3)n2)c1 | > 100 µM | – | > 100 µM | 1.43 | 1.8 | 2.72 | – | – | 0.307 µM | – | –
25 | COc1cccc(-n2nnc(-c3ccccc3NC(=O)Nc3ccc(N)cc3)n2)c1 | > 100 µM | 0.571 µM | > 100 µM | 1.76 | 2.66 | 3.9 | – | – | – | – | –
26 | CCCc1ccc(NC(=O)c2ccccc2NC(=O)c2cccc([N+](=O)[O-])c2)cc1 | > 100 µM | 0.727 µM | > 100 µM | 2.38 | 3.38 | 3.65 | 0.785 µM | – | 0.512 µM | – | –
27 | O=C(Nc1ccc([N+](=O)[O-])cc1)Nc1ccccc1C(=O)Nc1ccc(C(F)(F)F)cc1 | > 100 µM | – | > 100 µM | 2.12 | 2.81 | 3.31 | – | – | – | – | –
28 | COc1cccc(-n2nnc(-c3ccccc3NC(=O)c3ccc(N)cc3)n2)c1 | > 100 µM | – | > 100 µM | 1.39 | 2.28 | 2.55 | – | Dose-dependent effect | – | – | 0.52
29 | CCCc1ccc(NC(=O)c2ccccc2NC(=O)Nc2ccc(OC)cc2)cc1 | > 100 µM | – | > 100 µM | 4.58 | 10.12 | 15.68 | – | – | – | – | –
30 | COc1ccc(NC(=O)Nc2ccccc2-c2nnn(-c3ccc(OC)cc3)n2)cc1 | 52.5 µM | 0.382 µM | 57.4 µM | 1.56 | 1.78 | 2.06 | – | – | 0.355 µM | – | –
